Experimental data taken from US9687486B2, “Methods of treating atherosclerosis or myeloproliferative neoplasms by administering a lyn kinase activator” (THE TRUSTEES OF COLUMBIA UNIVERSITY IN THE CITY OF NEW YORK, priority 2012, dated 2017).
“Also recorded” adds a separate entry of the source.

Experiments:
c-MPL = test: Cell surface c-MPL levels in MkPs by flow cytometry; format: cell-based, mouse
Description: Detection of c-MPL from in vivo and in vitro experiments was performed as follows. After harvesting BM progenitor cells, RBCs were lysed and the cells were then resuspended in FACS buffer. Cells were then stained with a cocktail of lineage markers to allow negative selection of BM progenitor cells (Sca1, CD127, CD45R, CD19, CD11b, CD3e, TER-119, CD2, CD8, CD4, and Ly-6C/G; all FITC; eBioscience) and progenitor cell markers, ckit, CD16/CD32 (FcγRII/III), CD34, CD41 and c-MPL or isotype control and allowed to stain on ice for 30 mins. Cells were then washed and stained with a fluorescently conjugated secondary anti-rabbit antibody to detect the anti-c-MPL for a further 30 mins on ice. After this the cells were washed, resuspended in FACS buffer and run on the LSRII. MEPs were identified as lin^− ckit^+CD16/CD32^loCD34^loCD41^−, while MkPs were identified as lin^−ckit^+CD16/CD32^loCD34^loCD41^+.

c-CBL = test: c-Cbl tyrosine phosphorylation in MkPs in response to TPO, flow cytometry; format: cell-based, mouse
Description: BM progenitor cells were stimulated with TPO at the indicated concentration for the specified period of time at 37° C. and then immediately diluted with ice-cold buffer and placed on ice to prevent further changes in phosphorylation. Cells were then centrifuged and the pellet resuspended in BD fix buffer (BD Biosciences) for 10 mins on ice. The cells were washed with BD flow cytometry staining buffer, centrifuged and then resuspended in BD cytofix/perm buffer III for 20 mins. After this the cells were washed and resuspended in BD staining buffer and incubated with lineage (Sca1, CD127, CD45R, CD19, CD11b, CD3e, TER-119, CD2, CD8, CD4, and Ly-6G; all FITC; eBioscience) and progenitor cell markers, ckit, CD16/CD32 (FcγRII/III), CD34, CD41 and anti-phospho-c-Cbl ([…]/[…]; BD biosciences) or an isotype control for 30 mins on ice. The cells were then washed, resuspended in FACS buffer and run on an LSRII. Phosphorylated c-Cbl was normalized against isotype control staining.

MkPs = test: MkP proliferation by EdU incorporation; format: cell-based, mouse; details: in the presence of TPO
Description: FIG. 3. Shown are results all from WT, Abcg4^-/- or Lyn^-/- MkPs (n=4). (A) Quantification of tyrosine-phosphorylated c-CBL in response to TPO. (B) Tyrosine-phosphorylated c-CBL levels 5 min after TPO treatment and with or without pretreatment with CD (3 mM), CD-chol (3 mM CD) for 30 min or rHDL (20 μg apoA-I/ml) for 2 hours. (C) Tyrosine-phosphorylated c-CBL with or without 5 min TPO treatment or SU6656 pretreatment (10 μg/ml for 2 h). (D) Cell surface c-MPL with or without TPO or SU6656 treatment for 2 h. (E) Tyrosine-phosphorylated c-CBL (5 min in response to TPO). (F) cell surface c-MPL (2 h TPO treatment) with or without pretreatment with CD-chol (3 mM CD) for 30 min. (G) 16 h EdU incorporation in the presence of TPO and with or without CD (3 mM), CD-Chol (3 mM CD) pretreatment for 30 min or rHDL (20 μg/ml) for 16 […]-5 and p-ERK1/2 levels with or without TPO for 10 minutes. TPO was 30 ng/ml for all the assays shown. Error bars are S.E.M. *P<0.05 WT vs Abcg4^-/- TPO and ^P<0.05 for treatment effect. Blood leukocytes and BM HSPCs were stained and analyzed or sorted as described (Murphy, A. J. et al. 2011). Briefly, BM cells from the mouse femurs and tibias were stained with a cocktail of antibodies to lineage committed cells (CD45R, CD19, CD11b, CD3e, TER-119, CD2, CD8, CD4, Ly-6C/G: All FITC, eBioscience), antibodies to Sca1 (Pacific Blue) and ckit (APC Cy7) to identify HSPC populations and LSK (lin-, Sac1+ and ckit+) cells, and antibodies to CD16/CD32 (FcγRII/III), CD34 to separate CMP (lin-, Sca1-, ckit+, CD34int, […] (lin-, Sca1-, ckit+, CD34int, […] (lin-, Sca1-, ckit+, CD34lo, FcγRII/IIIlo). For DNA content analysis (G2M phase), BM cells were fixed, and stained with DAPI (Invitrogen) prior to flow cytometry analysis. To determine in vivo cell proliferation, EdU (Invitrogen) was injected into mice via the tail vein 24 hours prior to being sacrificed. Cells were immunostained as described above in preparation for flow cytometry. Cells were then fixed and permeabilized using 0.01% saponin (w/v; Fluka) and 1% FCS (v/v) in IC fixation buffer (eBiosciences) for 30 minutes. Cells were then washed and stained with Alexa Fluor-conjugated azides using the Click-iT system (Invitrogen). Proliferation was quantified as percentage of EdU^+ cells by flow cytometry.

[1] = test system: c-MPL(W515L) positive megakaryocyte progenitor cells; format: cell-based, mouse; details: tolimidone 10 μM, 10 days, IL-3 and TPO 1 ng/mL
Description: FIG. 21. BM cells of the recipient transplanted with BM cells expressing c-MPL(W515) were cultured for 10 days in the presence of IL-3 ([…]) and TPO (1 ng/mL) with or without tolimidone (10 μM). Megakaryocyte (Mk) colonies expressing c-MPL (W515) were identified by cell morphology and GFP expression. Identity of MK was also confirmed by staining for acetylcholinesterase activity. Count of Mk colonies (a); Mk count per colony (b); total colony per plate (c); fluorescence microscopy of a single colony (d). *p<0.05 between vehicle and tolimidone treatment.
Long-term, repeated rHDL infusions are less desirable relative to orally bioavailable small molecule compounds in treatment of chronic diseases such as MPNs. […] To assess the possibility that tolimidone limits megakaryopoiesis and thrombocytosis induced by c-MPL(W515), megakaryocyte colony formation assays with BM cells derived from mice with retroviral co-expression of c-MPL(W515L) and GFP in BM cells were used. […] Under the conditions of low TPO (1 ng/ml), the majority of cell colonies were non-megakaryocyte colonies.

[2] = test system: BM cells derived from Jak2+/VF/Vavcre mice; test: Megakaryocyte colony formation assay, BM cells from Jak2+/VF/Vavcre mice; format: cell-based, mouse; details: tolimidone 10 μM, 14 days
Description: FIG. 22. BM cells from Jak^2+/VF/Vav^cre mice were plated and cultured for 14 days in the presence of IL-3 ([…]) and TPO (1 ng/mL) with or without tolimidone (10 μM). Megakaryocyte (Mk) colony was identified by cell morphology. Colony number/plate (a); Mk count/colony (b); and representative Mk colonies (c). Arrows indicate the projected proplatelet like structures from mature megakaryocytes. *p<0.05 between vehicle and tolimidone (10 μM).
In order to assess this possibility, megakaryocyte colony formation assay with BM cells derived from Jak2+/VF/Vavcre mice were performed. […] Moreover, many of the mature megakaryocytes in the vehicle group started to form long-projected cell structures resembling proplatelets.

platelets = test: Platelet count in Abcg4−/− mice with tolimidone; format: in vivo, mouse
Lyn tyrosine kinase = Lyn tyrosine kinase (Homo sapiens, UniProt P07948); details: Saporito et al. 2012; cited from earlier work
Chain of Lyn tyrosine kinase (P07948 whole entry): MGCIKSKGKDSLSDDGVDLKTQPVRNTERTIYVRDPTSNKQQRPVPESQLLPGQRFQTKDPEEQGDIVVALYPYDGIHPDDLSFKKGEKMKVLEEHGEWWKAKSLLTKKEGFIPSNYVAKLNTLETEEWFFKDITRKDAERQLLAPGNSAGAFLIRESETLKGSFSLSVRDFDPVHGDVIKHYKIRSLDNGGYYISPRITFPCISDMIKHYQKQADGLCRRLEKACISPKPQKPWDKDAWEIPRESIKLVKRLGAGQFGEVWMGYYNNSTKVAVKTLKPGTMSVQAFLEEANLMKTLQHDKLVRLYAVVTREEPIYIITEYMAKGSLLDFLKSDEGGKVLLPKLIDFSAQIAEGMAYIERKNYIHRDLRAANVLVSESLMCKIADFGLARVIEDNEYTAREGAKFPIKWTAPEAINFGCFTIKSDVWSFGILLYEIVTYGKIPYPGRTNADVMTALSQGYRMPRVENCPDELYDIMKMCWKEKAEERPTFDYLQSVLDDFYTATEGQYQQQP

ulcer = details: rats, 10 mg/kg, oral; Lipinski et al. 1980; cited from earlier work

Cc1cccc(Oc2cnc(=O)[nH]c2)c1 [Tolimidone]
cell surface c-MPL levels (c-MPL; Abcg4−/− MkPs, TPO 30 ng/ml): reverses; also recorded: reduces | cell surface c-MPL levels (c-MPL; Abcg4−/− MkPs, tolimidone 10 μM and TPO for 2 h (FIG. 16)): significantly reduced | effects in Lyn−/− MkPs (c-MPL, c-Cbl phosphorylation, proliferation) (c-MPL; Lyn−/− MkPs, expected): no effects | cell surface c-MPL levels (c-MPL; WT MkPs, TPO 30 ng/ml): decreased | cell surface c-MPL levels (c-MPL; WT and Abcg4−/− MkPs, BM cells of hypercholesterolemic Ldlr−/− mice, Tolimidone 10 μM, 30 ng/ml TPO, 2 hours (FIG. 20)): significantly reduced | c-CBL tyrosine phosphorylation (c-CBL; Abcg4−/− MkPs): increases | c-CBL tyrosine phosphorylation (c-CBL; WT MkPs): increased | MkP proliferation (MkPs; Abcg4−/− MkPs): decreases | MkP proliferation (MkPs; WT MkPs): decreased | GFP-positive megakaryocytes in each colony [1]: significantly reduced | number of GFP-positive megakaryocyte colonies [1]: significantly reduced | total number of colonies [1]: did not significantly affect | proportion of megakaryocytes that generated proplatelets [2]: reduced | number of megakaryocyte colonies ([2]; IL-3 and TPO 1 ng/mL): decreased | number of megakaryocytes in each colony ([2]; IL-3 and TPO 1 ng/mL): decreased | platelet count (platelets): reduces | Lyn kinase activity (Lyn tyrosine kinase): selectively increases; also recorded: potent and selective | anti-ulcer activity (ulcer): oral-active anti-ulcer activity
